The values that follow come from PMC7504092, “Synthesis and Antiplasmodial Evaluation of 4-Carboxamido- and 4-Alkoxy-2-Trichloromethyl Quinazolines” (Molecules, 2020).

A short description of data set [1]: In vitro cytotoxicity evaluation (MTT). The data set is classed as cell-based. Particulars: human. Here is the method:
Triplicate assays were performed for each sample. Each plate-well was then microscope-examined for possible precipitate formation before the medium was aspirated from the wells. 100 μL of MTT (3-(4,5-dimethyl-2-thiazolyl)-2,5-diphenyl-2H-tetrazolium bromide) solution (0.5 mg/mL in medium without FBS) were then added to each well. […] After this time, the MTT solution was removed and DMSO (100 μL) was added to dissolve the resulting blue formazan crystals. Plates were shaken vigorously (700 rpm) for 10 min. The absorbance was measured at 570 nm with 630 nm as reference wavelength using a BIO-TEK ELx808 Absorbance Microplate Reader (LabX, Midland, ON, Canada). DMSO was used as blank and doxorubicin (purchased from Sigma Aldrich) as positive control. Cell viability was calculated as percentage of control (cells incubated without compound). […] CC50 values represent the mean value calculated from three independent experiments.

Data set [2] concerns K1 P. falciparum strain. As to the kind of experiment: In vitro antiplasmodial evaluation (SYBR Green I fluorescence-based method). The data set is classed as cell-based. As to conditions: for SI (selectivity index = CC50/EC50): CC50 HepG2 / EC50 PfK1; for EC50: multi-resistant K1 P. falciparum strain, 72 h incubation, read-out: PfK1 EC50. Here is the method: It was maintained in continuous culture as described previously by Trager and Jensen. […] Parasitemia was maintained daily at between 1 and 3%. The P. falciparum drug susceptibility test was carried out by comparing quantities of DNA in treated and control cultures of parasite in human erythrocytes according to an SYBR Green I fluorescence-based method using a 96-well fluorescence plate reader. […] Duplicate assays were performed for each sample. After incubation, plates were frozen at -20 °C for 24 h. […] Fifteen μL of each sample were transferred to 96-well flat bottom non-sterile black plates (Greiner Bio-one) already containing 15 μL of the SYBR Green I lysis buffer (2X SYBR Green I, 20 mM Tris base pH 7.5, 20 mM EDTA, 0.008% w/v saponin, 0.08% w/v Triton X-100).

The nature of data set [3]: Solubility of the tested molecule in the culture medium. It is filed as physicochemical. As to conditions: culture medium of the cytotoxicity test. As for the experimental part:
HepG2 cell line was maintained at 37 °C, 5% CO2, at 90% humidity in […] supplemented with 10% fetal bovine serum, 1% L-glutamine (200 mM) and penicillin (100 U/mL)/streptomycin (100 µg/mL) (complete RPMI medium). The cytotoxicity of the tested molecules on the HepG2 (hepatocarcinoma cell line purchased from ATCC, ref HB-8065) cell line was assessed according to the method of Mosmann with slight modifications. Briefly, 5.10^3 cells in 100 µL of complete medium were inoculated into each well of 96-well plates and incubated at 37 °C in humidified 5% CO2. After 24 h incubation, 100 μL of medium with various product concentrations dissolved in DMSO (final concentration less than 0.5% v/v) were added and the plates were incubated for 72 h at 37 °C. Triplicate assays were performed for each sample. Each plate-well was then microscope-examined for possible precipitate formation before the medium was aspirated from the wells. 100 μL of MTT (3-(4,5-dimethyl-2-thiazolyl)-2,5-diphenyl-2H-tetrazolium bromide) solution (0.5 mg/mL in medium without FBS) were then added to each well. Cells were incubated for 2 h at 37 °C. After this time, the MTT solution was removed and DMSO (100 μL) was added to dissolve the resulting blue formazan crystals. Plates were shaken vigorously (700 rpm) for 10 min. The absorbance was measured at 570 nm with 630 nm as reference wavelength using a BIO-TEK ELx808 Absorbance Microplate Reader (LabX, Midland, ON, Canada). DMSO was used as blank and doxorubicin (purchased from Sigma Aldrich) as positive control. Cell viability was calculated as percentage of control (cells incubated without compound). […] CC50 values represent the mean value calculated from three independent experiments.

Data set [4] relates to K1 P. falciparum strain. Particulars: previously described compounds; ref 9 (A), 10 (B), 11 (C), 12 (series D); read-out: Antiplasmodial activity EC50 P. falciparum K1; cited from earlier work.
Data set [5] has as its system HepG2 cell line. Details: method as in earlier work. Particulars: previously described compounds; ref 9 (A), 10 (B), 11 (C), 12 (series D); read-out: Cytotoxicity CC50 HepG2; cited from earlier work.
In data set [6] the test system is W2 P. falciparum. The arrangement: method as in PMID 21741131. Particulars: W2 strain; cited from earlier work.
Where [7] appears, read: Plasmodium falciparum, K1, 72 h.

SMILES strings stand for the structures. Like-named read-outs stand apart in the source and are kept apart here.

By CC50 is commonly meant the concentration giving 50% cytotoxicity. As usually defined, the EC50 is the concentration giving half of the maximal effect. The term melting point denotes the temperature of the solid-liquid transition. `O=C(Nc1nc(C(Cl)(Cl)Cl)nc2ccccc12)c1ccccn1` [Molecule 17, N-(2-Trichloromethylquinazolin-4-yl)picolinamide]: the melting point amounted to 214 °C. In data set [1], this compound displayed a CC50 at 72 h of over 7.8 µM. Further, the “SI (selectivity index = CC50/EC50)” value in data set [2] is over 0.5. Further, in data set [2] (setting [7]), the EC50 came to 14.5 µM. The “solubility (in words)” value in data set [3] is “lack of solubility”.

`O=C(Nc1nc(C(Cl)(Cl)Cl)nc2ccccc12)c1ccccc1F` [Molecule 11, 2-Fluoro-N-(2-Trichloromethylquinazolin-4-yl)benzamide]: the CC50 at 72 h in data set [1] is over 15.6 µM. The EC50 in data set [2] (setting [7]) worked out at 5.23 µM. The “solubility (in words)” value in data set [3] was “lack of solubility”.

As to `O=[N+]([O-])c1ccc(COc2nc(C(Cl)(Cl)Cl)nc3ccccc23)cc1` [C], the EC50 in data set [4] was 1.8 µM. For the same compound, the CC50 in data set [5] was 19.4 µM.

`O=C(Nc1nc(C(Cl)(Cl)Cl)nc2ccccc12)c1ccccc1[N+](=O)[O-]` [Molecule 8, 2-Nitro-N-(2-Trichloromethylquinazolin-4-yl)benzamide]: the melting point came out at 257 °C. Moreover, the CC50 at 72 h in data set [1] is over 15.6 µM. In addition, the “SI (selectivity index = CC50/EC50)” value in data set [2] was over 5.2. Further, the EC50 in data set [2] (setting [7]) stood at 3 µM. Moreover, in data set [3], the “solubility (in words)” value is “lack of solubility”.

For `Fc1ccc(-c2nc(C(Cl)(Cl)Cl)nc3ccccc23)cc1` [A, 4-(4′-fluorophenyl)-2-trichloromethylquinazoline], in data set [4], the EC50 is 2.5 µM. In data set [5], the CC50 is over 125 µM.

`CC(=O)Nc1nc(C(Cl)(Cl)Cl)nc2ccccc12` [Molecule 20, N-(2-Trichloromethylquinazolin-4-yl)acetamide] came in with a melting point of 217 °C. Moreover, the midpoint of cytotoxicity in data set [1], the CC50 at 72 h, lay at 31.2 µM. Moreover, the EC50 in data set [2] (setting [7]) was over 10 µM. The “solubility (in words)” value in data set [3] was “lack of solubility”.

The compound `CCCCC(=O)Nc1nc(C(Cl)(Cl)Cl)nc2ccccc12` [Molecule 24, N-(2-Trichloromethylquinazolin-4-yl)pentanamide] gave a melting point of 136 °C. The CC50 at 72 h in data set [1] came to 42.3 µM. The EC50 in data set [2] (setting [7]) is at most 2 µM. Also, the EC50 in data set [2] came out at 1.6 µM. The “solubility (in words)” value in data set [3] is given as “lack of solubility”.

In turn, `CCC(=O)Nc1nc(C(Cl)(Cl)Cl)nc2ccccc12` [Molecule 21, N-(2-Trichloromethylquinazolin-4-yl)propionamide] came in with a melting point of 171 °C. In addition, the CC50 at 72 h in data set [1] was over 62.5 µM. Besides, the “SI (selectivity index = CC50/EC50)” value in data set [2] is given as over 12.8. Also, in data set [2] (setting [7]), the EC50 worked out at 4.9 µM. In addition, the “solubility (in words)” value in data set [3] is given as “lack of solubility”.

Turning to `Oc1nc(C(Cl)(Cl)Cl)nc2ccccc12` [2-(trichloromethyl)quinazolin-4-ol], in data set [6], the “activity against W2 P. falciparum (in words)” value was “not active”.
